Peptide text beside a SMILES is read from it. * marks the point of attachment. Cbz = O=C(OCc1ccccc1)*
What was measured:
[1] = molecular target: T1, Bcl-xL (Mus musculus, UniProt Q64373); assay: Western blot of Bcl-xL degradation in NIH-3T3 cells; type: cell-based; details: for effect of pretreatment on SIAIS361034-induced Bcl-xL degradation: pretreated 2 h with ABT-263 1 µM, Pomalidomide 10 µM or MG132 1 µM, then SIAIS361034 24 h
T1 construct: endogenous in cells; host or cells: NIH-3T3
Experimental: (§1) Cells were lysed in cell lysis buffer (50 mM Tris pH 8.0, 150 mM NaCl, 10% glycerol, 1 mM EDTA, 50 mM NaF, and 0.1% NP-40) supplemented with protease and phosphatase inhibitors. Total protein extracts of tissues were generated in radioimmunoprecipitation (RIPA) assay lysis buffer containing complete protease and phosphatase inhibitor cocktail. Protein content was quantified using the Pierce BCA Protein Assay Kit (#23225, Thermo Fisher Scientific). The proteins were separated by SDS-PAGE, electrophoretically transferred to polyvinylidene difluoride (PVDF) blotting membranes (#LC2002, Thermo Fisher Scientific), and subjected to routine immunoblot analysis with primary antibodies as follows: anti-Bcl-2 (#15071), anti-Mcl-1 (#94296), anti-VHL (#68547), anti-CRBN (#71810), and anti-Sufu (#2522) were obtained from Cell Signaling Technology (Danvers, Massachusetts, USA); anti-Bcl-xL (#ab32370), anti-Gli1 (#ab134906), and anti-Smoothened (#ab236465) were obtained from Abcam (Cambridge, CB2 0AX, UK); anti-GAPDH (#60004-1-Ig) and anti-β-tubulin (#10094-1-AP) were purchased from Proteintech Group, Inc. (Rosemont, IL 60018, USA). The results were quantified by densitometry using ImageJ software (NIH).

[2] = system: Hh pathway (Gli-luciferase) in light II cells; assay: Dual luciferase reporter assay, Gli-luciferase provoked by SAG in light II cells; type: cell-based; details: SAG 100 nM; for effect of pretreatment on Gli-luciferase activity suppressed by SIAIS361034: pretreated 2 h with MG132 1 µM or Pomalidomide 10 µM, then SIAIS361034 1 µM
Experimental: (§2) Cells seeded in 96-well plates were treated with various treatments as indicated. The luciferase activity in the cell lysates was measured using Dual-Luciferase Reporter Assay System (Promega, Madison, WI, USA) according to the manufacturer's instructions in a luminometer (Molecular Devices, Sunnyvale, CA). The firefly luciferase values were normalized to Renilla values.

[3] = system: Hh pathway (Gli-luciferase) provoked by Gli2; assay: Dual luciferase reporter assay, Hh activity initiated by ectopic Gli2-HA in light II cells; type: cell-based; details: for IC50: ectopic Gli2-HA, 36 h
Excerpt: (§3) The TCF/LEF luciferase reporter plasmid, NF-κB luciferase reporter plasmid, and TK-Renilla luciferase plasmid were purchased from Promega (Madison, WI, USA). Smo plasmid was purchased from Origene (Rockville, MD, USA). The Smo mutant plasmids were generated from wild type Smo plasmid using QuickChange Site-Directed Mutagenesis kit from Agilent (Santa Clara, CA, USA) and confirmed by sequencing. Information on Smo mutants plasmids is provided in Supplementary data 2. The Gli1 plasmid and Gli2-HA plasmid were obtained from Addgene (Cambridge, MA, USA). Transient transfections were performed by Lipofectamine 2000 reagent from Invitrogen (Grand Island, NY, USA) according to the manufacturer's instructions.
as §2

[4] = system: platelets; assay: Platelet toxicity assay in C57BL/6J mice; type: in vivo, mouse; details: SIAIS361034 single i.p. 50 and 100 mg/kg, ABT-263 single p.o. 100 mg/kg, 8 h and 24 h
Excerpt: Blood was collected at different time points via retro-orbital bleeding in anticoagulation tube. Platelets or different blood cells were enumerated using BM800 blood analyzer (Bowlinman Sunshine).

[5] = system: medulloblastoma sensitive to Smo inhibitors; set-up: method as in PMID 19716296; details: GDC-0449 50 mg/kg; cited from earlier work
[6] = system: bone growth of young mice; assay: Bone growth of young mice (body weight, Micro-CT, H&E, IHC); type: in vivo, mouse; details: for body size: 5-week-old mice after treatment from P12 to P16; for femur length (Micro-CT, in words): mice at 6 weeks of age, treated P12 to P16; for levels of Bcl-xL in femurs (IHC): mice treated P12 to P16; for expression levels of Gli1 in femurs (IHC): mice treated P12 to P16, compared with Vehicle
Experimental: Skeleton Micro-CT images of mice were taken under anesthesia. The femurs were fixed and stored in 4% PFA at 4 °C. Mice and femurs were scanned using Inveon PET-CT (Siemens). Bone tissues were computed with Inveon Acquisition Workplace (IAW). Image data were visualized and analyzed by Inveon Viewer.
Femurs were fixed in 4% PFA and decalcified in 14% EDTA for 2 weeks at 4 °C. Bone tissues were embedded in paraffin. Thin sections were stained with hematoxylin and eosin (H&E) according to the manufacturer's instructions. For immunohistochemistry (IHC), paraffin-embedded sections of femurs were baked at 60 °C for 20 min, deparaffinized by xylene for 25 min, rehydrated through ethanol series, and incubated with citrate buffer at 95 °C for 20 min for antigen retrieval. Sections were incubated with the primary antibodies as indicated overnight at 4 °C, followed by goat anti-rabbit secondary antibody. The primary antibodies used in this study include Bcl-xL (1:2000, ab178844, Abcam) and Gli1 (1:100, 101156-T10, Sino Biological).

[7] = system: Hh pathway (Gli-luciferase) provoked by Smo WT / Smo mutants; assay: Dual luciferase reporter assay, Hh activity induced by ectopic Smo WT or Smo mutants in light II cells; type: cell-based; details: Smo WT, D473H, H231R, W281C, W535L, L412F, F460L, GDC-0449 10 μM (Figure S3B-D)
Excerpt: as §3, §2

[8] = system: hair growth and Hh pathway activity in skin; assay: Depilatory mouse model; type: in vivo
Experimental: For Depilatory model studies, male C57BL/6J mice (7 to 8 weeks of age) were purchased from Shanghai Lingchang Biotechnology Co. (Shanghai, China). After 2 days of acclimation, only healthy mice were used in the experiment. The back skin of the anesthetized mice was shaved and depilated using the depilatory Nair (Church & Dwight Co., Inc.). After 4 days, the depilated mice were randomized into groups for treatments as indicated. The back skin phenotypes were recorded by taking pictures every 3 days. Skin tissues were harvested 6 h after the last dosage to examining Gli1 mRNA expression as well as Gli1 and Bcl-xL protein levels.

[9] = system: SmoA1 (Smo W539L) medulloblastoma tumor; assay: SmoA1 medulloblastoma allograft in nude mice; type: in vivo, mouse
Excerpt: For in vivo SmoA1 MB allograft studies, SmoA1 spontaneous MB tumors were obtained from ND2:SmoA1 transgenic mice as previously described. Male nude mice (4 to 5 weeks of age) were purchased from Shanghai Lingchang Biotechnology Co. (Shanghai, China). Spontaneous tumors were harvested and subcutaneously allografted into nude mice. When the tumor volumes reached approximately 2000 mm^3, they were harvested and further subcutaneously allografted into nude mice. When the tumor volumes reached about 150 to 200 mm^3, the tumor-bearing mice were randomly assigned into vehicle and treatment groups. Mice were weighed every 3 days. Tumor size was measured once every 3 days using microcaliper. Tumor volume (V) was determined using the following formula: V = (L×W^2) ×0.5, where L is length, and W is width in mm. Tumor tissues were harvested 6 h after the last dosage to examining Gli1 mRNA expression and protein levels. SIAIS361034 for i.p. administration was formulated in 0.5% sodium carboxymethyl cellulose (CMC-Na). All in vivo studies above were approved by and conformed to the policies and regulations of the Animal Care and Use Committee of Fudan University, China.

[10] = system: NF-κB signaling pathway; assay: NF-κB luciferase reporter assay in 293T cells; type: cell-based; details: TNF-α 10 ng/mL, 6 h, SIAIS361034 10 μM, BAY 11-7082 20 μM
Experimental: (§4) Cells seeded in 96-well plates were treated with various treatments as indicated. The luciferase activity in the cell lysates was measured using Dual-Luciferase Reporter Assay System (Promega, Madison, WI, USA) according to the manufacturer's instructions in a luminometer (Molecular Devices, Sunnyvale, CA). The firefly luciferase values were normalized to Renilla values. […]
Data represent mean ± SD (n = 3). (B) NF-κB luciferase analysis of the effect of SIAIS361034 on NF-κB signaling pathway in 293T cells.The 293T cells were transfected with NF-κB luciferase reporter and Renilla-TK plasmids and […]
μM) for 6 h. Data represent mean ± SD (n = 3). […]
(§5) Data represent mean ± SD (n = 3).
(§6) (1 picture or pasted object on this page, not shown here)

[11] = system: Gli1; assay: Western blot of Gli1 in light II cells; type: cell-based; details: 1 µM
Experimental: as §1

[12] = system: Wnt signaling pathway; assay: TCF/LEF luciferase reporter assay in LS174T cells; type: cell-based; details: PGE2 1 μM, 24 h, SIAIS361034 10 μM, H-89 20 μM
Experimental: as §4
μM) for 6 h. Data represent mean ± SD (n = 3). (C) TCF/LEF luciferase analysis of the effect of SIAIS361034 on Wnt signaling pathway in LS174T cells. The LS174T cellswere transfected with TCF/LEF luciferase reporter and Renilla-TK plasmids and […]
as §5, §6

T1 sequence (Q64373 whole entry): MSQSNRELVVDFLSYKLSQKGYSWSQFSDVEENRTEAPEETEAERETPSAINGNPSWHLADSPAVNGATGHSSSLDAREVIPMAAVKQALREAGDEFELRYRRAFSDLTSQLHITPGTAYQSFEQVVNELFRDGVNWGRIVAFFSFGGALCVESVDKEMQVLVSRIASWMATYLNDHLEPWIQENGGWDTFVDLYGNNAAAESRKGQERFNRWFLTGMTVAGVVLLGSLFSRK

Nc1cccc2c1C(=O)N(C1CCC(=O)NC1=O)C2=O (centres unmarked) [Pomalidomide, reference compound]
effect of pretreatment on SIAIS361034-induced Bcl-xL degradation [1]: obviously abolished SIAIS361034-induced Bcl-xL degradation | effect of pretreatment on Gli-luciferase activity suppressed by SIAIS361034 [2]: abolished the suppressed Gli-luciferase activity

CN1C(=O)CCC(N2Cc3c(C#CCCCN4CCN(CCCNc5ccc(S(=O)(=O)NC(=O)c6ccc(N7CCN(CC8=C(c9ccc(Cl)cc9)CCC(C)(C)C8)CC7)cc6)cc5S(=O)(=O)C(F)(F)F)CC4)cccc3C2=O)C1=O (centres unmarked) [SIAIS361034NC]
Bcl-xL degradation ([1]; 1 µM, western blot): failed to degrade Bcl-xL | IC50 ([2]; 36 h, read-out: IC50 value inhibiting the Gli-luciferase activity provoked by SAG): 3.16 µM | IC50 [3]: 1.77 µM

CC1(C)CCC(c2ccc(Cl)cc2)=C(CN2CCN(c3ccc(C(=O)NS(=O)(=O)c4ccc(N[C@H](CCN5CCOCC5)CSc5ccccc5)c(S(=O)(=O)C(F)(F)F)c4)cc3)CC2)C1 [ABT-263, reference compound]
number of platelets [4]: severe thrombocytopenia | effect of pretreatment on SIAIS361034-induced Bcl-xL degradation [1]: abolished the SIAIS361034-induced Bcl-xL degradation

CS(=O)(=O)c1ccc(C(=O)Nc2ccc(Cl)c(-c3ccccn3)c2)c(Cl)c1 [GDC-0449, reference compound]
TGI [5]: 100% | body size [6]: smaller body sizes | femur length (Micro-CT, in words) [6]: obvious shortening of the femur | levels of Bcl-xL in femurs (IHC) [6]: No change | expression levels of Gli1 in femurs (IHC) [6]: significantly suppressed | Hh activity provoked by wild type Smo and Smo mutants [7]: little appreciable effect | hair growth during depilation-induced hair regeneration ([8]; male C57BL/6J mice, administered after 4 days of depilation): significantly retarded hair growth | Gli1 and Bcl-xL protein levels in skin tissues ([8]; skin harvested 6 h after the last dosage, western blot): no effect on the levels of Bcl-xL | growth of SmoA1 tumors ([9]; nude mice, SIAIS361034 50 mg/kg, GDC-0449 50 mg/kg p.o.): obvious resistance | expression of Gli1 mRNA in tumor tissues ([9]; tumors harvested 6 h after the last dosage, RT-qPCR): no alteration | Hh activity evoked by ectopic expression of Gli2 [3]: no effect | IC50 [3]: > 10 µM

Cc1ccc(S(=O)(=O)/C=C/C#N)cc1 [BAY 11-7082, reference compound]
NF-κB luciferase activity activated by TNF-α [10]: significantly impeded

Cc1sc2c(c1C)C(c1ccc(Cl)cc1)=N[C@@H](CC(=O)OC(C)(C)C)c1nnc(C)n1-2 [JQ1, reference compound]
Gli1 protein level [11]: reduced Gli1 protein

Cc1ncsc1-c1ccc([C@H](C)NC(=O)[C@@H]2C[C@@H](O)CN2C(=O)[C@@H](NC(=O)CCCCCC(=O)N2CCN(CC[C@H](CSc3ccccc3)Nc3ccc(S(=O)(=O)NC(=O)c4ccc(N5CCN(CC6=C(c7ccc(Cl)cc7)CCC(C)(C)C6)CC5)cc4)cc3S(=O)(=O)C(F)(F)F)CC2)C(C)(C)C)cc1 [DT2216]
body size [6]: smaller body sizes | femur length (Micro-CT, in words) [6]: obvious shortening of the femur | levels of Bcl-xL in femurs (IHC) [6]: reduced | expression levels of Gli1 in femurs (IHC) [6]: significantly suppressed | rate of weight growth ([6]; young mice treated from P12 to P16): decelerated the rate of weight growth

CC(C)C[C@@H](C=O)NC(=O)[C@H](CC(C)C)NC(=O)[C@H](CC(C)C)NC(=O)OCc1ccccc1 [MG132, reference compound] (Cbz-Leu-Leu-Leu-aldehyde)
effect of pretreatment on SIAIS361034-induced Bcl-xL degradation [1]: obviously abolished SIAIS361034-induced Bcl-xL degradation | effect of pretreatment on Gli-luciferase activity suppressed by SIAIS361034 [2]: abolished the suppressed Gli-luciferase activity

O=S(=O)(NCCNC/C=C/c1ccc(Br)cc1)c1cccc2cnccc12 [H-89, reference compound]
TCF/LEF luciferase activity (Wnt signaling) activated by PGE2 [12]: significantly inhibited

— PMC9691367, “The PROTAC selectively degrading Bcl-xL represents a novel Hedgehog pathway inhibitor with capacity of combating resistance to Smoothened inhibitors while sparing bone growth” (Theranostics, 2022)
